Where a SMILES comes first, the peptide text is derived from it. [ ]: non-standard residue; d: D form. NMeF = CN[C@@H](Cc1ccccc1)C(=O)O; dNMeF = CN[C@H](Cc1ccccc1)C(=O)O; NMeL = CN[C@@H](CC(C)C)C(=O)O; dNMeL = CN[C@H](CC(C)C)C(=O)O; NMeV = CN[C@H](C(=O)O)C(C)C; NMeA = CN[C@@H](C)C(=O)O; Nle = CCCC[C@H](N)C(=O)O; dNMeA = CN[C@H](C)C(=O)O
Settings: Caco-2

Row | SMILES | permeability in transwell assays
1 | CC(C)C[C@@H]1NC(=O)[C@@H]2CCCN2C(=O)[C@H]2CCCN2C(=O)[C@@H](CC(C)C)N(C)C(=O)[C@@H](Cc2ccccc2)N(C)C(=O)[C@@H](CC(C)C)NC(=O)[C@@H](CC(C)C)N(C)C(=O)[C@@H]2CCCN2C(=O)[C@H](CC(C)C)N(C)C(=O)[C@H](CC(C)C)N(C)C1=O [Design D10.23, PRO LEU *LEU *LEU PRO *DLEU DLEU *DPHE *DLEU DPRO] (cyclo(L[NMeL][NMeL]P[dNMeL][dL][dNMeF][dNMeL][dP]P)) | not permeable

Same assay, conditions: PAMPA

Row | SMILES | PAMPA_Papp_Avg | PAMPA_R1 | PAMPA_R3
2 | CC[C@H](C)[C@@H]1NC(=O)[C@H](CC(C)C)NC(=O)[C@H](Cc2ccccc2)NC(=O)[C@@H](C)NC(=O)[C@H]2CCCN2C(=O)[C@@H]2CCCN2C(=O)[C@H]2CCCN2C(=O)[C@H](CC(C)C)NC(=O)[C@@H](C(C)C)NC(=O)[C@@H](CC(C)C)N(C)C(=O)[C@@H]2CCCN2C1=O [Design D11.17, PRO *DLEU DVAL LEU DPRO PRO DPRO DALA PHE LEU ILE] (cyclo([dP][dA]FLIP[dNMeL][dV]L[dP]P)) | BQL | BQL | BQL
3 | CC(C)C[C@@H]1NC(=O)[C@@H]2CCCN2C(=O)[C@H]2CCCN2C(=O)[C@@H](CC(C)C)N(C)C(=O)[C@@H](Cc2ccccc2)N(C)C(=O)[C@@H](CC(C)C)NC(=O)[C@@H](CC(C)C)N(C)C(=O)[C@@H]2CCCN2C(=O)[C@H](CC(C)C)N(C)C(=O)[C@H](CC(C)C)N(C)C1=O [Design D10.23, PRO LEU *LEU *LEU PRO *DLEU DLEU *DPHE *DLEU DPRO] (cyclo(L[NMeL][NMeL]P[dNMeL][dL][dNMeF][dNMeL][dP]P)) | BQL | BQL | BQL
4 | CC[C@H](C)[C@@H]1NC(=O)[C@H](Cc2ccccc2)NC(=O)[C@H]2CCCN2C(=O)[C@H]([C@@H](C)CC)NC(=O)[C@H](C(C)C)NC(=O)[C@@H](C)NC(=O)[C@H]2CCCN2C1=O (single isomer, unassigned) [Design D7.8.p2, VAL ILE DPRO PHE ILE DPRO DALA] | 4.92e-06 cm/s | 4.52e-06 cm/s | 5.64e-06 cm/s
5 | CC[C@@H](C)[C@H]1NC(=O)[C@@H](CC(C)C)N(C)C(=O)[C@@H]2CCCN2C(=O)[C@H]([C@@H](C)CC)NC(=O)[C@H]([C@@H](C)CC)N(C)C(=O)[C@@H](CC(C)C)NC(=O)[C@@H](C(C)C)N(C)C(=O)[C@H]2CCCN2C(=O)[C@@H](C(C)C)NC(=O)[C@@H]2CCCN2C(=O)[C@H]([C@@H](C)CC)NC1=O (single isomer, unassigned) [Design D11.23.p2, DVAL DPRO *DVAL DLEU *ILE ILE PRO *DLEU DILE ILE PRO] | 9.83E-07 | 1.49E-06 | 4.80E-07
6 | CC(C)[C@H]1NC(=O)[C@H](C)NC(=O)[C@@H]2CCCN2C(=O)[C@H]2CCCN2C(=O)[C@@H](C(C)C)NC(=O)[C@H]2CCCN2C(=O)[C@@H](C)NC(=O)[C@@H](Cc2ccccc2)N(C)C(=O)[C@H](Cc2ccccc2)NC1=O [Design D9.35, DPRO DVAL DPRO PRO ALA DVAL PHE *DPHE DALA] (cyclo(A[dV]F[dNMeF][dA][dP][dV][dP]P)) | BQL | BQL | BQL
7 | CC[C@@H](C)[C@H]1NC(=O)[C@@H]2CCCN2C(=O)[C@H](CC(C)C)NC(=O)[C@@H](CC(C)C)NC(=O)[C@@H](Cc2ccccc2)NC(=O)[C@@H](Cc2ccccc2)NC(=O)[C@@H](C)NC(=O)[C@H]2CCCN2C(=O)[C@@H]2CCCN2C(=O)[C@@H](C(C)C)NC(=O)[C@@H]2CCCN2C(=O)[C@H]2CCCN2C1=O [Design D12.9, DILE DPRO PRO DVAL PRO DPRO DALA DPHE DPHE DLEU LEU PRO] (cyclo([dV]P[dP][dA][dF][dF][dL]LP[dI][dP]P)) | BQL | BQL | BQL
8 | CC[C@@H](C)[C@H]1NC(=O)[C@H](CC(C)C)NC(=O)[C@@H](CC(C)C)NC(=O)[C@H](C(C)C)NC(=O)[C@@H]2CCCN2C(=O)[C@H](CC(C)C)N(C)C(=O)[C@@H](CC(C)C)NC(=O)[C@H](Cc2ccccc2)N(C)C(=O)[C@H]2CCCN2C1=O [Design D9.38, DPRO *PHE DLEU *LEU PRO VAL DLEU LEU DILE] (cyclo(L[dI][dP][NMeF][dL][NMeL]PV[dL])) | BQL | BQL | BQL
9 | CC(C)C[C@@H]1NC(=O)[C@H](CC(C)C)NC(=O)[C@H](C(C)C)NC(=O)[C@H](C)NC(=O)[C@@H]2CCCN2C(=O)[C@H]2CCCN2C(=O)[C@@H]2CCCN2C(=O)[C@H](C)N(C)C(=O)[C@@H](CC(C)C)N(C)C(=O)[C@@H]2CCCN2C(=O)[C@H](Cc2ccccc2)NC1=O [Design D11.7, PHE PRO *DLEU *ALA PRO DPRO PRO ALA VAL LEU LEU] (cyclo(AVLLFP[dNMeL][NMeA]P[dP]P)) | BQL | BQL | BQL
10 | CC[C@@H](C)[C@H]1NC(=O)[C@@H](CC(C)C)N(C)C(=O)[C@@H](CC(C)C)N(C)C(=O)[C@H](CC(C)C)NC(=O)[C@@H](CC(C)C)N(C)C(=O)[C@H](Cc2ccccc2)NC(=O)[C@H](CC(C)C)NC(=O)[C@@H]2CCCN2C(=O)[C@H]2CCCN2C(=O)[C@@H]2CCCN2C(=O)[C@H](CC(C)C)NC1=O [Design D11.22, PHE *DLEU LEU *DLEU *DLEU DILE LEU PRO DPRO PRO LEU] (cyclo(LF[dNMeL]L[dNMeL][dNMeL][dI]LP[dP]P)) | BQL | BQL | BQL
11 | CC(C)C[C@@H]1NC(=O)[C@H](C)NC(=O)[C@H](C)NC(=O)[C@H]2CCCN2C(=O)[C@H](Cc2ccccc2)N(C)C(=O)[C@H]2CCCN2C(=O)[C@H](CC(C)C)N(C)C(=O)[C@@H](CC(C)C)N(C)C(=O)[C@H](Cc2ccccc2)NC(=O)[C@@H](CC(C)C)NC1=O [Design D10.8, PHE *DLEU *LEU DPRO *PHE DPRO ALA ALA LEU DLEU] (cyclo(AAL[dL]F[dNMeL][NMeL][dP][NMeF][dP])) | BQL | BQL | BQL
12 | CC[C@@H](C)[C@H]1NC(=O)[C@H](C(C)C)NC(=O)[C@H](Cc2ccccc2)NC(=O)[C@H](C)NC(=O)[C@@H]2CCCN2C(=O)[C@H]2CCCN2C(=O)[C@H]2CCCN2C(=O)[C@H](CC(C)C)N(C)C(=O)[C@@H](C)N(C)C(=O)[C@H](C(C)C)NC1=O [Design D10.38, VAL *DALA *LEU DPRO DPRO PRO ALA PHE VAL DILE] (cyclo(AFV[dI]V[dNMeA][NMeL][dP][dP]P)) | BQL | BQL | BQL
13 | CCCC[C@@H]1NC(=O)[C@H]2CCCN2C(=O)[C@@H]2CCCN2C(=O)[C@@H](C)NC(=O)[C@H]2CCCN2C(=O)[C@@H](C(C)C)NC(=O)[C@H](C(C)C)NC(=O)[C@@H](Cc2ccccc2)N(C)C(=O)[C@H](C)N(C)C1=O [Design D9.31, PRO DPRO MET *ALA *DPHE VAL DVAL DPRO DALA] (cyclo([NMeA][dNMeF]V[dV][dP][dA]P[dP][Nle])) | 6.86E-08 | 6.96E-08 | 5.29E-08
14 | CC(C)C[C@@H]1NC(=O)[C@H](C(C)C)NC(=O)[C@@H](C)NC(=O)[C@H](C)NC(=O)[C@@H]2CCCN2C(=O)[C@H]2CCCN2C(=O)[C@@H](C)NC(=O)[C@H]2CCCN2C(=O)[C@@H]2CCCN2C1=O [Design D9.34, PRO ALA DALA VAL LEU PRO DPRO DALA DPRO] (cyclo(A[dA]VLP[dP][dA][dP]P)) | BQL | BQL | BQL
15 | CCCC[C@@H]1NC(=O)[C@H]2CCCN2C(=O)[C@H](C(C)C)NC(=O)[C@@H](CC(C)C)N(C)C(=O)[C@H](Cc2ccccc2)NC(=O)[C@H](CC(C)C)NC(=O)[C@@H](CC(C)C)N(C)C(=O)[C@@H]2CCCN2C(=O)[C@@H](CC(C)C)NC1=O [Design D9.40, DPRO MET DLEU PRO *DLEU LEU PHE *DLEU VAL] (cyclo(F[dNMeL]V[dP][Nle][dL]P[dNMeL]L)) | 2.38E-07 | 4.18E-07 | 1.63E-07
16 | CC[C@H](C)[C@@H]1NC(=O)[C@H]2CCCN2C(=O)[C@H](C(C)C)NC(=O)[C@H](C(C)C)N(C)C(=O)[C@@H](C(C)C)NC(=O)[C@H](C(C)C)NC(=O)[C@H]2CCCN2C(=O)[C@@H]2CCCN2C(=O)[C@H](C)NC(=O)[C@@H](CC(C)C)N(C)C(=O)[C@H]2CCCN2C1=O [Design D11.8, PRO DPRO VAL DVAL *VAL VAL DPRO ILE DPRO *DLEU ALA] (cyclo(AP[dP]V[dV][NMeV]V[dP]I[dP][dNMeL])) | BQL | BQL | BQL
17 | CC(C)C[C@@H]1NC(=O)[C@H]2CCCN2C(=O)[C@@H]2CCCN2C(=O)[C@H](C)N(C)C(=O)[C@@H](C(C)C)NC(=O)[C@H](Cc2ccccc2)NC(=O)[C@H]2CCCN2C(=O)[C@@H]2CCCN2C(=O)[C@@H](CC(C)C)NC1=O [Design D9.20, DLEU PRO DPRO PHE DVAL *ALA PRO DPRO LEU] (cyclo(F[dV][NMeA]P[dP]L[dL]P[dP])) | BQL | BQL | BQL
18 | CC[C@@H](C)[C@H]1NC(=O)[C@H](C(C)C)NC(=O)[C@H]2CCCN2C(=O)[C@@H]2CCCN2C(=O)[C@H](Cc2ccccc2)NC(=O)[C@@H](CC(C)C)NC(=O)[C@H](Cc2ccccc2)NC(=O)[C@@H]2CCCN2C(=O)[C@@H](C)N(C)C(=O)[C@@H]2CCCN2C(=O)[C@H](CC(C)C)NC(=O)[C@H](CC(C)C)N(C)C1=O [Design D12.4, PRO *DALA PRO PHE DLEU PHE PRO DPRO VAL DILE *LEU LEU] (cyclo(FP[dP]V[dI][NMeL]LP[dNMeA]PF[dL])) | BQL | BQL | BQL
19 | CC[C@@H](C)[C@H]1NC(=O)[C@H](CC(C)C)N(C)C(=O)[C@H]2CCCN2C(=O)[C@H](CC(C)C)NC(=O)[C@@H](Cc2ccccc2)N(C)C(=O)[C@H](CC(C)C)N(C)C(=O)[C@@H](C(C)C)NC(=O)[C@H](C)NC(=O)[C@H]2CCCN2C(=O)[C@@H]2CCCN2C1=O (single isomer, unassigned) [Design D10.60.p2, *LEU *DPHE LEU DPRO *LEU DILE PRO DPRO ALA DVAL] | 1.17E-06 | 1.49E-06 | 1.62E-06
20 | CC[C@@H](C)[C@H]1NC(=O)[C@@H](CC(C)C)N(C)C(=O)[C@@H]2CCCN2C(=O)[C@H]([C@@H](C)CC)NC(=O)[C@H]([C@@H](C)CC)N(C)C(=O)[C@@H](CC(C)C)NC(=O)[C@@H](C(C)C)N(C)C(=O)[C@H]2CCCN2C(=O)[C@@H](C(C)C)NC(=O)[C@@H]2CCCN2C(=O)[C@H]([C@@H](C)CC)NC1=O (single isomer, unassigned) [Design D11.23.p1, DVAL DPRO *DVAL DLEU *ILE ILE PRO *DLEU DILE ILE PRO] | 2.70E-06 | 1.22E-06 | 5.23E-06

Reference: paper PMC9490236, “Accurate de novo design of membrane-traversing macrocycles” (Cell, 2022)
